Measured values from PubChem BioAssay AID1963837 (Molecular Pharmacology Branch, DTP, NCI, 2024).

Tested on: 843126-344-R-J1-PDC complex spheroid viability
Test: Anticancer human tumor 843126-344-R-J1-PDC patient-derived melanoma cell line growth inhibition [POLQ]
Conditions: for IC50: curve of first compound; for viability, T/C: stronger effect = lower value
Procedure, shortened: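 PDC + HUVEC + MSC complex spheroids; POLQ inhibitors ± partner drugs; top conc. at/near clinical Cmax, else 10 microM (SN-38 1 microM), half-log dilutions; 37 degrees C, 5% CO2.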

[1] = second compound 0.0316 µM, first compound 0.0316 µM
[2] = second compound 0.0316 µM, first compound 0.1 µM
[3] = second compound 0.0316 µM, first compound 0.316 µM
[4] = second compound 0.0316 µM, first compound 1 µM
[5] = second compound 0.0316 µM, first compound 3.16 µM
[6] = second compound 0.0316 µM, first compound 10 µM
[7] = second compound 0.1 µM, first compound 0.0316 µM
[8] = second compound 0.1 µM, first compound 0.1 µM
[9] = second compound 0.1 µM, first compound 0.316 µM
[10] = second compound 0.1 µM, first compound 1 µM
[11] = second compound 0.1 µM, first compound 3.16 µM
[12] = second compound 0.1 µM, first compound 10 µM
[13] = second compound 0.316 µM, first compound 0.0316 µM
[14] = second compound 0.316 µM, first compound 0.1 µM
[15] = second compound 0.316 µM, first compound 0.316 µM
[16] = second compound 0.316 µM, first compound 1 µM
[17] = second compound 0.316 µM, first compound 3.16 µM
[18] = second compound 0.316 µM, first compound 10 µM
[19] = second compound 1 µM, first compound 0.0316 µM
[20] = second compound 1 µM, first compound 0.1 µM
[21] = second compound 1 µM, first compound 0.316 µM
[22] = second compound 1 µM, first compound 1 µM
[23] = second compound 1 µM, first compound 3.16 µM
[24] = second compound 1 µM, first compound 10 µM
[25] = second compound 3.16 µM, first compound 0.0316 µM
[26] = second compound 3.16 µM, first compound 0.1 µM
[27] = second compound 3.16 µM, first compound 0.316 µM
[28] = second compound 3.16 µM, first compound 1 µM
[29] = second compound 3.16 µM, first compound 3.16 µM
[30] = second compound 3.16 µM, first compound 10 µM
[31] = second compound 10 µM, first compound 0.0316 µM
[32] = second compound 10 µM, first compound 0.1 µM
[33] = second compound 10 µM, first compound 0.316 µM
[34] = second compound 10 µM, first compound 1 µM
[35] = second compound 10 µM, first compound 3.16 µM
[36] = second compound 10 µM, first compound 10 µM
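Throughout, for viability, T/C: spheroids exposed to drugs for seven days before readout.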

Work on `CC(=O)O[C@H]1C(=O)[C@@]2(C)[C@H]([C@H](OC(=O)c3ccccc3)[C@]3(O)C[C@H](OC(=O)[C@H](O)[C@@H](NC(=O)c4ccccc4)c4ccccc4)C(C)=C1C3(C)C)[C@]1(OC(C)=O)CO[C@@H]1C[C@@H]2O` + COC1C(OC(N)=O)C(O)C(Oc2ccc3c(O)c(NC(=O)c4ccc(O)c(CC=C(C)C)c4)c(=O)oc3c2C)OC1(C)C yielded an IC50 (second compound 0.0316 µM) greater than 3 µM, an IC50 (second compound 0.1 µM) greater than 3 µM and an IC50 (second compound 0.316 µM) greater than 3 µM. It also gave an IC50 (second compound 1 µM) greater than 3 µM, an IC50 (second compound 3.16 µM) greater than 3 µM and an IC50 (second compound 10 µM) greater than 3 µM. The viability, T/C (second compound 0.0316 µM, first compound 0.00949 µM) was 55.4%, the viability, T/C (second compound 0.0316 µM, first compound 0.03 µM) was 70% and the viability, T/C (second compound 0.0316 µM, first compound 0.0949 µM) was 56%. The viability, T/C (second compound 0.0316 µM, first compound 0.3 µM) was 69.8%, the viability, T/C (second compound 0.0316 µM, first compound 0.949 µM) was 61.2% and the viability, T/C (second compound 0.0316 µM, first compound 3 µM) was 68.9%. For the same compound, the viability, T/C (second compound 0.1 µM, first compound 0.00949 µM) was 63.9%, the viability, T/C (second compound 0.1 µM, first compound 0.03 µM) was 60.9% and the viability, T/C (second compound 0.1 µM, first compound 0.0949 µM) was 49.1%. It also gave a viability, T/C (second compound 0.1 µM, first compound 0.3 µM) of 55.3%, a viability, T/C (second compound 0.1 µM, first compound 0.949 µM) of 55.5% and a viability, T/C (second compound 0.1 µM, first compound 3 µM) of 57.5%. For the same compound, the viability, T/C (second compound 0.316 µM, first compound 0.00949 µM) was 55.6%, the viability, T/C (second compound 0.316 µM, first compound 0.03 µM) was 64.6% and the viability, T/C (second compound 0.316 µM, first compound 0.0949 µM) was 65.5%. It also gave a viability, T/C (second compound 0.316 µM, first compound 0.3 µM) of 57.1%, a viability, T/C (second compound 0.316 µM, first compound 0.949 µM) of 55.7% and a viability, T/C (second compound 0.316 µM, first compound 3 µM) of 61.1%. The viability, T/C (second compound 1 µM, first compound 0.00949 µM) was 60.2%, the viability, T/C (second compound 1 µM, first compound 0.03 µM) was 59.8% and the viability, T/C (second compound 1 µM, first compound 0.0949 µM) was 61.6%. For the same compound, the viability, T/C (second compound 1 µM, first compound 0.3 µM) was 60.4%, the viability, T/C (second compound 1 µM, first compound 0.949 µM) was 52.5% and the viability, T/C (second compound 1 µM, first compound 3 µM) was 52.1%. The viability, T/C (second compound 3.16 µM, first compound 0.00949 µM) was 63.6%, the viability, T/C (second compound 3.16 µM, first compound 0.03 µM) was 62.2% and the viability, T/C (second compound 3.16 µM, first compound 0.0949 µM) was 53.8%. For the same compound, the viability, T/C (second compound 3.16 µM, first compound 0.3 µM) was 57.2%, the viability, T/C (second compound 3.16 µM, first compound 0.949 µM) was 60.7% and the viability, T/C (second compound 3.16 µM, first compound 3 µM) was 50.9%. It also gave a viability, T/C (second compound 10 µM, first compound 0.00949 µM) of 65.4%, a viability, T/C (second compound 10 µM, first compound 0.03 µM) of 55.8% and a viability, T/C (second compound 10 µM, first compound 0.0949 µM) of 52.9%. The viability, T/C (second compound 10 µM, first compound 0.3 µM) was 54.6%, the viability, T/C (second compound 10 µM, first compound 0.949 µM) was 66.1% and the viability, T/C (second compound 10 µM, first compound 3 µM) was 57.1%.

In the case of `COc1cc(C2c3cc4c(cc3C(OC3OC5COC(C)OC5C(O)C3O)C3COC(=O)C23)OCO4)cc(OC)c1O` (stereo unspecified) + COC1C(OC(N)=O)C(O)C(Oc2ccc3c(O)c(NC(=O)c4ccc(O)c(CC=C(C)C)c4)c(=O)oc3c2C)OC1(C)C, the IC50 (second compound 0.0316 µM) is reported as greater than 10 µM, the IC50 (second compound 0.1 µM) is reported as greater than 10 µM and the IC50 (second compound 0.316 µM) is reported as greater than 10 µM. It also gave an IC50 (second compound 1 µM) of 9.06 µM, an IC50 (second compound 3.16 µM) greater than 10 µM and an IC50 (second compound 10 µM) of 7.76 µM. It also gave a viability, T/C [1] of 86%, a viability, T/C [2] of 89.4% and a viability, T/C [3] of 95.3%. The viability, T/C [4] was 79.8%, the viability, T/C [5] was 57% and the viability, T/C [6] was 50.8%. For the same compound, the viability, T/C [7] was 102%, the viability, T/C [8] was 91.3% and the viability, T/C [9] was 88.2%. For the same compound, the viability, T/C [10] was 86%, the viability, T/C [11] was 60% and the viability, T/C [12] was 54.5%. The viability, T/C [13] was 98%, the viability, T/C [14] was 89.3% and the viability, T/C [15] was 97.5%. The viability, T/C [16] was 83.6%, the viability, T/C [17] was 60.7% and the viability, T/C [18] was 52.1%. For the same compound, the viability, T/C [19] was 81.8%, the viability, T/C [20] was 82.6% and the viability, T/C [21] was 97%. The viability, T/C [22] was 82.1%, the viability, T/C [23] was 78.9% and the viability, T/C [24] was 47.3%. For the same compound, the viability, T/C [25] was 85.8%, the viability, T/C [26] was 93.6% and the viability, T/C [27] was 89.5%. For the same compound, the viability, T/C [28] was 91%, the viability, T/C [29] was 64.4% and the viability, T/C [30] was 57.8%. For the same compound, the viability, T/C [31] was 114%, the viability, T/C [32] was 96.3% and the viability, T/C [33] was 91.8%. The viability, T/C [34] was 85.1%, the viability, T/C [35] was 58.5% and the viability, T/C [36] was 47.2%.

For `COc1cccc2c1C(=O)c1c(O)c3c(c(O)c1C2=O)CC(O)(C(=O)CO)CC3OC1CC(N)C(O)C(C)O1` (stereo unspecified) + COC1C(OC(N)=O)C(O)C(Oc2ccc3c(O)c(NC(=O)c4ccc(O)c(CC=C(C)C)c4)c(=O)oc3c2C)OC1(C)C, the IC50 (second compound 0.0316 µM) was 0.332 µM, the IC50 (second compound 0.1 µM) was 0.32 µM and the IC50 (second compound 0.316 µM) was 0.295 µM. For the same compound, the IC50 (second compound 1 µM) was 0.328 µM, the IC50 (second compound 3.16 µM) was 0.404 µM and the IC50 (second compound 10 µM) was 0.303 µM. For the same compound, the viability, T/C [1] was 80%, the viability, T/C [2] was 81.3% and the viability, T/C [3] was 50.5%. The viability, T/C [4] was 14.6%, the viability, T/C [5] was 4.71% and the viability, T/C [6] was 3.86%. The viability, T/C [7] was 84%, the viability, T/C [8] was 85% and the viability, T/C [9] was 49.2%. For the same compound, the viability, T/C [10] was 13.5%, the viability, T/C [11] was 3.97% and the viability, T/C [12] was 3.88%. The viability, T/C [13] was 103%, the viability, T/C [14] was 71.8% and the viability, T/C [15] was 58%. The viability, T/C [16] was 14.1%, the viability, T/C [17] was 4.21% and the viability, T/C [18] was 4.82%. The viability, T/C [19] was 98.3%, the viability, T/C [20] was 77.2% and the viability, T/C [21] was 56.2%. It also gave a viability, T/C [22] of 13%, a viability, T/C [23] of 4.55% and a viability, T/C [24] of 3.9%. The viability, T/C [25] was 87.6%, the viability, T/C [26] was 77% and the viability, T/C [27] was 60.2%. The viability, T/C [28] was 16%, the viability, T/C [29] was 5.73% and the viability, T/C [30] was 4.31%. It also gave a viability, T/C [31] of 88.6%, a viability, T/C [32] of 77.6% and a viability, T/C [33] of 49.9%. The viability, T/C [34] was 15%, the viability, T/C [35] was 4.64% and the viability, T/C [36] was 3.44%.
